According to ChEMBL document CHEMBL3085678, “3-Azatetracyclo[5.2.1.1(5,8).0(1,5)]undecane derivatives: from wild-type inhibitors of the M2 ion channel of influenza A virus to derivatives with potent activity against the V27A mutant” (J Med Chem, 2013):
Active and inactive are the calls of the source. No cut-off for these calls is given here.

Tests used:
[1] = system: Influenza A virus (A/udorn/1972(H3N2)); type: cell membranes; details: 100 uM
Human alphaherpesvirus 1 = assay: Antiviral activity against Herpes simplex virus type 1; type: functional, organism-based
[2] = system: Mammalian orthoreovirus 1; assay: Antiviral activity against Reovirus-1; type: functional, organism-based
Human alphaherpesvirus 2 = assay: Antiviral activity against Herpes simplex virus type 2; type: functional, organism-based
Sindbis virus = assay: Antiviral activity against Sindbis virus; type: functional, organism-based
Vaccinia virus = assay: Antiviral activity against Vaccinia virus; type: functional, organism-based; details: Orthopoxvirus vaccinia
Human respirovirus 3 = assay: Antiviral activity against Parainfluenza-3 virus; type: functional, organism-based
Coxsackievirus B4 = assay: Antiviral activity against Coxsackievirus B4; type: functional, organism-based
[3] = system: Vesicular stomatitis virus; assay: Antiviral activity against Vesicular stomatitis virus; type: functional, organism-based
Feline coronavirus = assay: Antiviral activity against Feline coronavirus; type: functional, organism-based
[4] = system: Respiratory syncytial virus; assay: Antiviral activity against Respiratory syncytial virus; type: functional, organism-based
Punta Toro virus = assay: Antiviral activity against Punta Toro virus; type: functional, organism-based
[5] = Inhibition of Influenza A virus M2 ion channel by two-electrode voltage clamp assay
[6] = Cytotoxicity against MDCK cells assessed as minimum cytotoxic concentration after 24 hrs by MTS assay; type: cell-based, Canis lupus familiaris; details: dog
[7] = Cytotoxicity against MDCK cells assessed as minimum cytotoxic concentration after 72 hrs by MTS assay; type: cell-based, Canis lupus familiaris; details: dog
MDCK = assay: Cytotoxicity against MDCK cells after 72 hrs by MTS assay; type: cell-based, Canis lupus familiaris; details: dog

Compound	inhibition [1]	Activity (Human alphaherpesvirus 1)	Activity [2]	Activity (Human alphaherpesvirus 2)	Activity (Sindbis virus)	Activity (Vaccinia virus)	Activity (Human respirovirus 3)	Activity (Coxsackievirus B4)	Activity [3]	Activity (Feline coronavirus)	Activity [4]	Activity (Punta Toro virus)	IC50 [5]	MCC at 24 h [6]	MCC at 72 h [7]	CC50 (MDCK)
NC12C3CCC4C3C3C(CCC31)C42	4.8%	inactive	inactive	inactive	inactive	inactive	inactive	inactive	inactive	inactive	inactive	inactive				
NC1CCC2(CC1)C1CC3CC(C1)CC2C3 (configuration not stated)													19 µM			
NC12CC3CC(CC(C3)C1)C2 [AMANTADINE]	91%													≥ 500 µM	> 500 µM	> 500 µM
CN1CC23CC4CC2(CC4C3)C1	88.3%	inactive	inactive	inactive	inactive	inactive	inactive	inactive	inactive	inactive	inactive	inactive			≥ 100 µM	> 100 µM
CC12CC34CN(C(=N)N)CC3(C1)CC2(C)C4	92.4%	inactive	inactive	inactive	inactive	inactive	inactive	inactive	inactive	inactive	inactive	inactive		> 50 µM	4 µM	1.4 µM
CC12CC3CC1(C)CC3(CN)C2	97.3%	inactive	inactive	inactive	inactive	inactive	inactive	inactive	inactive	inactive	inactive	inactive				
CC(N)C12CC3CC(CC(C3)C1)C2 (configuration not stated) [RIMANTADINE]														≥ 500 µM	500 µM	203 µM
N=C(N)N1CC23CC45CCCCC4(C2)CC3(C1)C5	93.1%	inactive	inactive	inactive	inactive	inactive	inactive	inactive	inactive	inactive	inactive	inactive		≥ 10 µM	4 µM	3.1 µM
c1csc(-c2cc(CNC34CC5CC(CC(C5)C3)C4)no2)c1													> 100 µM			
CN1CC23CC4(C)CC2(C1)CC4(C)C3	87.9%	inactive	inactive	inactive	inactive	inactive	inactive	inactive	inactive	inactive	inactive	inactive			≥ 20 µM	49 µM
Oc1ccc(CNC23CC4CC(CC(C4)C2)C3)c(O)c1													59 µM			
C1=CC2C3C4C5C=CC4C24CNCC54C13		inactive	inactive	inactive	inactive	inactive	inactive	inactive	inactive	inactive	inactive	inactive				
C1CCC23CC45CNCC4(CC2(C1)C5)C3	85.3%	inactive	inactive	inactive	inactive	inactive	inactive	inactive	inactive	inactive	inactive	inactive		> 50 µM	4 µM	6.8 µM
CCC12CC34CNCC3(C1)CC2(CC)C4	65%	inactive	inactive	inactive	inactive	inactive	inactive	inactive	inactive	inactive	inactive	inactive			20 µM	49 µM
CCC12CC34CN(C(=N)N)CC3(C1)CC2(CC)C4	42.8%	inactive	inactive	inactive	inactive	inactive	inactive	inactive	inactive	inactive	inactive	inactive			4 µM	6.2 µM
CC12CC3CC1(C)CC3(N)C2	93.6%	inactive	inactive	inactive	inactive	inactive	inactive	inactive	inactive	inactive	inactive	inactive				
C1NCC23CC4CC12CC4C3	93.9%	inactive	inactive	inactive	inactive	inactive	inactive	inactive	inactive	inactive	inactive	inactive			100 µM	≥ 59 µM
NCC12C3CCC4C3C3C(CCC31)C42	12.8%	inactive	inactive	inactive	inactive	inactive	inactive	inactive	inactive	inactive	inactive	inactive				
NC(=O)c1ncn([C@@H]2O[C@H](CO)[C@@H](O)[C@H]2O)n1 [RIBAVIRIN]														> 100 µM		
NC1CC[Si]2(CCCCC2)CC1													14 µM			
C1C2C1C1C3C4C5C6CC6C4C14CNCC54C23 (configuration not stated)	86.5%	inactive	inactive	inactive	inactive	inactive	inactive	inactive	inactive	inactive	inactive	inactive				
CC12CC34CNCC3(C1)CC2(C)C4	93.8%	inactive	inactive	inactive	inactive	inactive	inactive	inactive	inactive	inactive	inactive	inactive			100 µM	59 µM
N=C(N)N1CC23CC4CC2(CC4C3)C1	95.7%	inactive	inactive	inactive	inactive	inactive	inactive	inactive	inactive	inactive	inactive	inactive		> 50 µM	8.5 µM	10 µM
